Test results from patent US12377104B1, “Methods for treating a fatty liver disease” (Madrigal Pharmaceuticals, Inc., priority 2024, dated 2025).

What was measured:
[1] = test system: NASH patients with fibrosis stage F1A or F1C; test: MAESTRO-NASH: exploratory F1 (F1A/F1C) population, endpoints and safety
Protein binding = type: in vitro ADME
NASH patients = test: Exposure-response: probability of NASH resolution or fibrosis response by Cave,ss; type: in vivo, human
Method: Various body weight cutoffs for dosing were evaluated.
Study median body weight was 100 kg. […] Study median BMI was 35 kg/m^2.

[2] = test system: NASH patients with and without possible MetALD; test: MAESTRO-NASH: possible MetALD subgroup; type: in vivo, human; details: for Fibrosis Improvement, % of patients / Fibrosis Improvement, number of patients / NASH Resolution, % of patients / NASH Resolution, number of patients: Week 52
Method: Analyses were performed on 782 patients who had both a baseline and Week 52 biopsy. Patients with a self-declared consumption of alcohol ≤2 drinks/day for men and ≤1.5 drinks/day for women were included as per usual MASH diagnostic recommendations. However, in attempt to objectify undisclosed moderate alcohol consumption above those limits, at baseline or during the trial, CDT measurements were performed longitudinally in all patients over 52 weeks. Post-randomization, a phosphatidylethanol (PEth) test was performed in patients tested for alcohol consumption based on increased liver enzymes ALT, AST and/or GGT (<2%). Those with increased PEth were included as MetALD. Patients with baseline or post-baseline CDT>2.5% (ULN 2.47) and/or a PEth>20 ng/mL (ULN 20 ng/mL) were assigned to a “possible MetALD” subgroup (possible increased alcohol consumption).

clinical = details: human, in vivo
Excerpt: Following once daily doses, steady state was typically reached within 3 to 6 days of dosing.

[3] = MASH/NASH (low alcohol), 80 mg (n = 224)
[4] = MASH/NASH (low alcohol), 100 mg
[5] = MASH/NASH (low alcohol), 100 mg (n = 228)
[6] = low or no alcohol consumption, 80 mg
[7] = low or no alcohol consumption, 100 mg

CC(C)c1cc(Oc2c(Cl)cc(-n3nc(C#N)c(=O)[nH]c3=O)cc2Cl)n[nH]c1=O [Resmetirom, 2-(3,5-dichloro-4-((5-isopropyl-6-oxo-1,6-dihydropyridazin-3-yl)oxy)phenyl)-3,5-dioxo-2,3,4,5-tetrahydro-1,2,4-triazine-6-carbonitrile]
Any Serious TEAE, % ([1]; 80 mg): (20.0) % | Any TEAEs leading to Study Discontinuation, % ([1]; 80 mg): (13.3) % | TEAE Grade 1, % ([1]; 80 mg): (20.0) % | TEAE Grade 2, % ([1]; 80 mg): (53.3) % | TEAE Grade 3, % ([1]; 80 mg): (16.7) % | Any TEAE, % ([1]; 80 mg (N = 30)): (93.3) % | Fibrosis improvement endpoint ([1]; 80 mg (N = 30)): 21.7% | Nash resolution endpoint ([1]; 80 mg (N = 30)): 38.3% | Any Serious TEAE, % ([1]; 100 mg): (23.1) % | Any TEAEs leading to Study Discontinuation, % ([1]; 100 mg): (11.5) % | TEAE Grade 1, % ([1]; 100 mg): (19.2) % | TEAE Grade 2, % ([1]; 100 mg): (46.2) % | TEAE Grade 3, % ([1]; 100 mg): (15.4) % | Any TEAE, % ([1]; 100 mg (N = 26)): (80.8) % | Fibrosis improvement endpoint ([1]; 100 mg (N = 26)): 15.4% | Nash resolution endpoint ([1]; 100 mg (N = 26)): 25.0% | Abdominal pain upper, % ([1]; AEs >5%, 80 mg): (6.7) % | Abdominal pain, % ([1]; AEs >5%, 80 mg): (3.3) % | Arthralgia, % ([1]; AEs >5%, 80 mg): (20.0) % | Back pain, % ([1]; AEs >5%, 80 mg): (13.3) % | Constipation, % ([1]; AEs >5%, 80 mg): (13.3) % | Diarrhea, % ([1]; AEs >5%, 80 mg): (26.7) % | Dizziness, % ([1]; AEs >5%, 80 mg): (6.7) % | Fatigue, % ([1]; AEs >5%, 80 mg): (10.0) % | Headache, % ([1]; AEs >5%, 80 mg): (13.3) % | Hypertension (AE), % ([1]; AEs >5%, 80 mg): (3.3) % | Nausea, % ([1]; AEs >5%, 80 mg): (16.7) % | Pruritus, % ([1]; AEs >5%, 80 mg): (6.7) % | Pyrexia, % ([1]; AEs >5%, 80 mg): (6.7) % | Rash, % ([1]; AEs >5%, 80 mg): (10.0) % | Type 2 diabetes mellitus (AE), % ([1]; AEs >5%, 80 mg): (3.3) % | Urinary tract infection, % ([1]; AEs >5%, 80 mg): (6.7) % | Vomiting, % ([1]; AEs >5%, 80 mg): (3.3) % | Weight decreased, % ([1]; AEs >5%, 80 mg): (3.3) % | Abdominal pain upper, % ([1]; AEs >5%, 100 mg): (3.8) % | Abdominal pain, % ([1]; AEs >5%, 100 mg): (7.7) % | Arthralgia, % ([1]; AEs >5%, 100 mg): (7.7) % | Back pain, % ([1]; AEs >5%, 100 mg): (11.5) % | Constipation, % ([1]; AEs >5%, 100 mg): (7.7) % | Cough, % ([1]; AEs >5%, 100 mg): (3.8) % | Diarrhea, % ([1]; AEs >5%, 100 mg): (19.2) % | Dizziness, % ([1]; AEs >5%, 100 mg): (7.7) % | Fatigue, % ([1]; AEs >5%, 100 mg): (7.7) % | Nausea, % ([1]; AEs >5%, 100 mg): (7.7) % | Osteopenia, % ([1]; AEs >5%, 100 mg): (7.7) % | Pruritus, % ([1]; AEs >5%, 100 mg): (15.4) % | Rash, % ([1]; AEs >5%, 100 mg): (7.7) % | Type 2 diabetes mellitus (AE), % ([1]; AEs >5%, 100 mg): (3.8) % | Urinary tract infection, % ([1]; AEs >5%, 100 mg): (15.4) % | Vomiting, % ([1]; AEs >5%, 100 mg): (11.5) % | Weight decreased, % ([1]; AEs >5%, 100 mg): (11.5) % | protein-bound (Protein binding): greater than 99% | Estimated Probability of response (NASH resolution or fibrosis response) (NASH patients; Cave,ss Q1: [20-155)): 33.6% | Observed Probability of response (NASH resolution or fibrosis response) (NASH patients; Cave,ss Q1: [20-155)): 45.5% | Estimated Probability of response (NASH resolution or fibrosis response) (NASH patients; Cave,ss Q2: [155-219)): 37.3% | Observed Probability of response (NASH resolution or fibrosis response) (NASH patients; Cave,ss Q2: [155-219)): 44.0% | Estimated Probability of response (NASH resolution or fibrosis response) (NASH patients; Cave,ss Q3: [219-321)): 41.9% | Observed Probability of response (NASH resolution or fibrosis response) (NASH patients; Cave,ss Q3: [219-321)): 41.8% | Estimated Probability of response (NASH resolution or fibrosis response) (NASH patients; Cave,ss Q4: [321-1326]): 56.2% | Observed Probability of response (NASH resolution or fibrosis response) (NASH patients; Cave,ss Q4: [321-1326]): 55.0% | Mean Cave,ss (NASH patients; Q1: [20-155)): 120 ng/mL | Mean Cave,ss (NASH patients; Q2: [155-219)): 186 ng/mL | Mean Cave,ss (NASH patients; Q3: [219-321)): 263 ng/mL | Mean Cave,ss (NASH patients; Q4: [321-1326]): 495 ng/mL | MRI-PDFF ≥30% reduction, % of patients ([2]; MASH/NASH (low alcohol), 80 mg): (59.2%) | MRI-PDFF ≥30% reduction, patients/evaluated ([2]; MASH/NASH (low alcohol), 80 mg): 109/184 | Fibrosis Improvement, % of patients [2, 3]: 29% | Fibrosis Improvement, number of patients [2, 3]: 65 | NASH Resolution, % of patients [2, 3]: 29.9% | NASH Resolution, number of patients [2, 3]: 67 | MRI-PDFF ≥30% reduction, % of patients [2, 4]: (71.2%) | MRI-PDFF ≥30% reduction, patients/evaluated [2, 4]: 136/191 | Fibrosis Improvement, % of patients [2, 5]: 33.3% | Fibrosis Improvement, number of patients [2, 5]: 76 | NASH Resolution, % of patients [2, 5]: 36% | NASH Resolution, number of patients [2, 5]: 82 | MRI-PDFF ≥30% reduction, % of patients ([2]; MetALD, 80 mg): (88%) | MRI-PDFF ≥30% reduction, patients/evaluated ([2]; MetALD, 80 mg): 23/26 | Fibrosis Improvement, % of patients ([2]; MetALD, 80 mg (n = 34)): 35% | Fibrosis Improvement, number of patients ([2]; MetALD, 80 mg (n = 34)): 12 | NASH Resolution, % of patients ([2]; MetALD, 80 mg (n = 34)): 29% | NASH Resolution, number of patients ([2]; MetALD, 80 mg (n = 34)): 10 | MRI-PDFF ≥30% reduction, % of patients ([2]; MetALD, 100 mg): (81%) | MRI-PDFF ≥30% reduction, patients/evaluated ([2]; MetALD, 100 mg): 13/16 | Fibrosis Improvement, % of patients ([2]; MetALD, 100 mg (n = 20)): 30% | Fibrosis Improvement, number of patients ([2]; MetALD, 100 mg (n = 20)): 6 | NASH Resolution, % of patients ([2]; MetALD, 100 mg (n = 20)): 35% | NASH Resolution, number of patients ([2]; MetALD, 100 mg (n = 20)): 7 | NASH resolution, patients [2, 6]: 29.9% | fibrosis improvement, patients [2, 6]: 29% | ≥30% reduction from baseline in MRI-PDFF, patients [2, 6]: 59.2% | NASH resolution, patients [2, 7]: 36% | fibrosis improvement, patients [2, 7]: 33.3% | ≥30% reduction from baseline in MRI-PDFF, patients [2, 7]: 71.2% | NASH resolution, patients ([2]; possible MetALD, 80 mg): 29% | fibrosis improvement, patients ([2]; possible MetALD, 80 mg): 35% | ≥30% reduction from baseline in MRI-PDFF, patients ([2]; possible MetALD, 80 mg): 88% | NASH resolution, patients ([2]; possible MetALD, 100 mg): 35% | fibrosis improvement, patients ([2]; possible MetALD, 100 mg): 30% | ≥30% reduction from baseline in MRI-PDFF, patients ([2]; possible MetALD, 100 mg): 81% | Tmax (clinical): ~4 h | half-life (clinical): 4.5 h | AUC (clinical; 80 mg): 5850 ng·h/mL | Cmax (clinical; 80 mg): 778 ng/mL | AUC (clinical; 100 mg): 7780 ng·h/mL | Cmax (clinical; 100 mg): 971 ng/mL
